Assay results reported in patent publication US10336762B2 (priority 2017, dated 2019).
Where two headings read alike, the source gives them in different places. Each block holds one molecule with its values, some of them ahead of it.

Legend:
IRAK4 enzyme = IRAK4 enzyme (Homo sapiens (Human), UniProt Q9NWZ3); experiment: biochemical; assay type: biochemical; conditions: IRAK4 enzyme, 500 μM ATP
TNFα = experiment: cells; assay type: cell-based, human; conditions: LPS-stimulated human monocytes, read-out: EC50 TNF
[1] = Homo sapiens, Monocyte, TNFα by TR-FRET
[2] = Homo sapiens, Monocyte, TNFα content

Chain of IRAK4 enzyme (Q9NWZ3 whole entry): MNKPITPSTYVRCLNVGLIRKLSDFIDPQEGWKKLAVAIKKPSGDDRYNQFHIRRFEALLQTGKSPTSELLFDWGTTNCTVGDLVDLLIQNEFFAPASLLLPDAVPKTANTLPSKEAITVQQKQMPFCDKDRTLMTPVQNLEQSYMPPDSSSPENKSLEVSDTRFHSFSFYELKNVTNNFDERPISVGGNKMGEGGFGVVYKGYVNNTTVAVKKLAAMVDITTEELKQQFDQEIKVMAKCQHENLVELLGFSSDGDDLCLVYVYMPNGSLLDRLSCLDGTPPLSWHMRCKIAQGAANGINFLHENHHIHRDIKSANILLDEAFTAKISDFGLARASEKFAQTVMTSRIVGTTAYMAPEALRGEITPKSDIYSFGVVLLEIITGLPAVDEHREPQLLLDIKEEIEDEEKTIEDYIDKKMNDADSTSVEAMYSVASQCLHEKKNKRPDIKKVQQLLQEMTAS

Molecule: COC(=O)NCc1ccc(Nc2cc(-c3ccc4cc(C#N)cnn34)ncc2C(=O)NC[C@@H](F)C(C)(C)O)cc1F [Example 834, (R)-methyl (4-((2-(3-cyano-pyrrolo[1,2-b]pyridazin-7-yl)-5-((2-fluoro-3-hydroxy-3-methylbutyl)carbamoyl)pyridin-4-yl)amino)-2-fluorobenzyl)carbamate]
IC50 (IRAK4 enzyme; TR-FRET): < 0.001 µM
EC50 (TNFα; [1]): 0.023 µM

Molecule: CC(C)Nc1cc(-c2ccc3cc(C#N)cnn23)ncc1C(=O)NCC(F)(F)CNC(=O)OC(C)(C)C [Example 554, tert-butyl (3-(6-(3-cyano-pyrrolo[1,2-b]pyridazin-7-yl)-4-(isopropylamino)nicotinamido)-2,2-difluoropropyl)carbamate]
IC50 (IRAK4 enzyme; TR-FRET (HTRF)): 0.035 µM
EC50 (TNFα; [2]): 0.439 µM

Molecule: CC(C)Nc1cc(-c2ccc3cc(C#N)cnn23)ncc1C(=O)N[C@H]1CCC[C@H](O)C1 [Example 191, 6-(3-cyanopyrrolo[1,2-b]pyridazin-7-yl)-N-((1S,3S)-3-hydroxycyclohexyl)-4-(isopropylamino) nicotinamide]
IC50 (IRAK4 enzyme; TR-FRET): 0.004 µM
EC50 (TNFα; [2]): 0.128 µM

Molecule: CC(C)Nc1cc(-c2ccc3cc(C#N)cnn23)ncc1C(=O)NC1(C)COC1 [Example 35, 6-(3-cyanopyrrolo[1,2-b]pyridazin-7-yl)-4-(isopropyl-amino)-N-(3-methyloxetan-3-yl) nicotinamide]
IC50 (IRAK4 enzyme; TR-FRET): 0.003 µM

Molecule: CC(C)(O)[C@H](F)CNC(=O)c1cnc(-c2ccc3cc(C#N)cnn23)cc1NC1CC2(CCNC2)C1 (stereo partly drawn) [Example 902, (R)-4-(6-azaspiro[3.4]octan-2-ylamino)-6-(3-cyanopyrrolo[1,2-b]pyridazin-7-yl)-N-(2-fluoro-3-hydroxy-3-methyl-butyl)nicotinamide]
IC50 (IRAK4 enzyme; TR-FRET): 0.001 µM
EC50 (TNFα; [1]): 1.23 µM

Molecule: CC(C)Nc1cc(-c2ccc3cc(C(N)=O)cnn23)ncc1C(=O)NCC1CS(=O)(=O)C1 [Example 79, 7-(5-(((1,1-dioxidothietan-3-yl)methyl)carbamoyl)-4-(isopropylamino)pyridin-2-yl)pyrrolo[1,2-b] pyridazine-3-carboxamide]
IC50 (IRAK4 enzyme; TR-FRET): 0.018 µM
EC50 (TNFα; [2]): 1.82 µM

Molecule: COC12CCC(Nc3cc(-c4ccc5cc(C#N)cnn45)ncc3C(=O)NC[C@@H](F)C(C)(C)O)(CC1)CC2 [Example 414, 6-(3-cyanopyrrolo[1,2-b]pyridazin-7-yl)-N-((R)-2-fluoro-3-hydroxy-3-methylbutyl)-4-((4-methoxybicyclo[2.2.2]octan-1-yl)amino)nicotinamide]
IC50 (IRAK4 enzyme; TR-FRET (HTRF)): 0.012 µM
EC50 (TNFα; [2]): 0.178 µM

Molecule: CC(C)(O)[C@H](F)CNC(=O)c1cnc(-c2ccc3cc(C#N)cnn23)cc1Nc1cnc2c(c1)COCC2 [Example 862, (R)-6-(3-cyanopyrrolo[1,2-b]pyridazin-7-yl)-4-((7,8-dihydro-5H-pyrano[4,3-b]pyridin-3-yl)amino)-N-(2-fluoro-3-hydroxy-3-methylbutyl)nicotinamide]
IC50 (IRAK4 enzyme; TR-FRET): < 0.001 µM
EC50 (TNFα; [1]): 0.046 µM

Molecule: CC(C)(O)[C@H](F)CNC(=O)c1cnc(-c2ccc3cc(C#N)cnn23)cc1Nc1ccc2c(C#N)c[nH]c2c1 [Example 571, (R)-4-((3-cyano-1H-indol-6-yl)amino)-6-(3-cyano-pyrrolo[1,2-b]pyridazin-7-yl)-N-(2-fluoro-3-hydroxy-3-methylbutyl)nicotinamide]
IC50 (IRAK4 enzyme; TR-FRET (HTRF)): < 0.001 µM
EC50 (TNFα; [2]): 0.012 µM

Molecule: COC(=O)N1CC[C@@H](Nc2cc(-c3ccc4cc(C#N)cnn34)ncc2C(=O)NC[C@@H](F)C(C)(C)O)C1 [Example 752, (R)-methyl 3-((2-(3-cyano-pyrrolo[1,2-b]pyridazin-7-yl)-5-(((R)-2-fluoro-3-hydroxy-3-methylbutyl)carbamoyl)pyridin-4-yl)amino)pyrrolidine-1-carboxylate]
IC50 (IRAK4 enzyme; TR-FRET (HTRF)): < 0.001 µM
EC50 (TNFα; [2]): 0.08 µM

Molecule: N#Cc1cnn2c(-c3cc(N[C@H]4CCC[C@@H](O)C4)c(C(=O)NC4CC4)cn3)ccc2c1 [Example 514, 6-(3-cyanopyrrolo[1,2-b]pyridazin-7-yl)-N-cyclopropyl-4-(((1S,3R)-3-hydroxy-cyclohexyl)amino) nicotinamide]
IC50 (IRAK4 enzyme; TR-FRET (HTRF)): 0.009 µM
EC50 (TNFα; [2]): 0.213 µM

Molecule: CC(C)(O)[C@H](F)CNC(=O)c1cnc(-c2ccc3cc(C#N)cnn23)cc1N[C@H]1CC[C@H](NC(=O)OC2COC2)CC1 [Example 280, oxetan-3-yl ((1R,4r)-4-((2-(3-cyanopyrrolo[1,2-b]pyridazin-7-yl)-5-(((R)-2-fluoro-3-hydroxy-3-methylbutyl)carbamoyl)pyridin-4-yl)amino)cyclo-hexyl)carbamate]
IC50 (IRAK4 enzyme; TR-FRET): 0.001 µM
EC50 (TNFα; [2]): 0.055 µM

Molecule: CC(C)Nc1cc(-c2ccc3cc(C#N)cnn23)ncc1C(N)=O [Example 39, 6-(3-cyanopyrrolo[1,2-b]pyridazin-7-yl)-4-(isopropylamino) nicotinamide]
IC50 (IRAK4 enzyme; TR-FRET): 0.004 µM
EC50 (TNFα; [2]): 0.507 µM

Molecule: CNc1cc(-c2ccc3cc(C#N)cnn23)ncc1C(=O)NC[C@@H](F)C(C)(C)O [Example 379, (R)-6-(3-cyanopyrrolo[1,2-b]pyridazin-7-yl)-N-(2-fluoro-3-hydroxy-3-methylbutyl)-4-(methyl-amino)nicotinamide]
EC50 (TNFα; [2]): 0.057 µM

Molecule: CC(C)(O)[C@H](F)CNC(=O)c1cnc(-c2ccc3cc(C#N)cnn23)cc1Nc1cncc(OCC(F)F)c1 [Example 852, (R)-6-(3-cyanopyrrolo[1,2-b]pyridazin-7-yl)-4-((5-(2,2-difluoroethoxy)pyridin-3-yl)amino)-N-(2-fluoro-3-hydroxy-3-methylbutyl) nicotinamide]
EC50 (TNFα; [1]): 0.003 µM

Molecule: CC(C)(O)[C@H](F)CNC(=O)c1cnc(-c2ccc3cc(C#N)cnn23)cc1NCCS(C)(=O)=O [Example 102, (R)-6-(3-cyanopyrrolo[1,2-b]pyridazin-7-yl)-N-(2-fluoro-3-hydroxy-3-methylbutyl)-4-((2-(methylsulfonyl)ethyl)amino) nicotinamide]
EC50 (TNFα; [2]): 0.313 µM

Molecule: CC(C)(O)[C@H](F)CNC(=O)c1cnc(-c2ccc3cc(C#N)cnn23)cc1Nc1cnc(-c2cn[nH]c2)nc1 [Example 969, (R)-4-((2-(1H-pyrazol-4-yl)pyrimidin-5-yl)amino)-6-(3-cyanopyrrolo[1,2-b]pyridazin-7-yl)-N-(2-fluoro-3-hydroxy-3-methyl-butyl)nicotinamide]
IC50 (IRAK4 enzyme; TR-FRET): < 0.001 µM

Molecule: CC(C)(O)[C@H](F)CNC(=O)c1cnc(-c2ccc3cc(C#N)cnn23)cc1NC1(CO)CC1 [Example 51, (R)-6-(3-cyanopyrrolo[1,2-b]pyridazin-7-yl)-N-(2-fluoro-3-hydroxy-3-methylbutyl)-4-((1-(hydroxymethyl)cyclopropyl)amino)nicotinamide]
EC50 (TNFα; [2]): 0.159 µM

Molecule: CC(C)(O)[C@H](F)CNC(=O)c1cnc(-c2ccc3cc(C#N)cnn23)cc1Nc1ccc(-n2nccn2)cc1 [Example 774, (R)-4-((4-(2H-1,2,3-triazol-2-yl)phenyl)amino)-6-(3-cyanopyrrolo[1,2-b]pyridazin-7-yl)-N-(2-fluoro-3-hydroxy-3-methylbutyl)nicotinamide]
IC50 (IRAK4 enzyme; TR-FRET (HTRF)): 0.002 µM

Molecule: CC(C)(O)[C@H](F)CNC(=O)c1cnc(-c2ccc3cc(C#N)cnn23)cc1Nc1cccc(OC(F)(F)F)c1 [Example 607, (R)-6-(3-cyanopyrrolo[1,2-b]pyridazin-7-yl)-N-(2-fluoro-3-hydroxy-3-methylbu1yl)-4-((3-(trifluoromethoxy)phenyl)amino)nicotinamide]
EC50 (TNFα; [2]): 1.44 µM

Molecule: 6-(3-cyanopyrrolo[1,2- b]pyridazin-7-yl)-N-((R)- 2-fluoro-3-hydroxy-3- methylbutyl)-4-(((1s,3S)-3- hydroxyadamantan-1- yl)amino)nicotinamide [Example 525]
EC50 (TNFα; TNFα content): 0.011 µM

Molecule: CC(=O)NCC(F)(F)CNC(=O)c1cnc(-c2ccc3cc(C#N)cnn23)cc1NC(C)C [Example 551, N-(3-acetamido-2,2-difluoropropyl)-6-(3-cyanopyrrolo[1,2-b]pyridazin-7-yl)-4-(isopropylamino)nicotinamide]
EC50 (TNFα; [2]): 0.809 µM

Molecule: CNC(=O)OC[C@@H]1C[C@H]1Nc1cc(-c2ccc3cc(C#N)cnn23)ncc1C(=O)NC[C@@H](F)C(C)(C)O [Example 747]
EC50 (TNFα; [2]): 0.169 µM

Molecule: CC(C)(O)[C@H](F)CNC(=O)c1cnc(-c2ccc3cc(C#N)cnn23)cc1Nc1nc2ccccc2s1 [Example 377]
EC50 (TNFα; [2]): 0.426 µM

Molecule: N#Cc1cnn2c(-c3cc(N[C@H]4CCC[C@@H](O)C4)c(C(=O)NC4CCC(F)(F)CC4)cn3)ccc2c1 [Example 431, 6-(3-cyanopyrrolo[1,2-b]pyridazin-7-yl)-N-(4,4-difluorocyclohexyl)-4-(((1S,3R)-3-hydroxy-cyclohexyl)amino) nicotinamide]
EC50 (TNFα; [2]): 0.441 µM

Molecule: Cn1cc(Nc2cc(-c3ccc4cc(C#N)cnn34)ncc2C(=O)NC[C@@H](F)C(C)(C)O)ccc1=O [Example 441, (R)-6-(3-cyanopyrrolo[1,2-b]pyridazin-7-yl)-N-(2-fluoro-3-hydroxy-3-methylbutyl)-4-((1-methyl-6-oxo-1,6-dihydropyridin-3-yl)amino)nicotinamide]
EC50 (TNFα; [2]): 1.3 µM

Molecule: CC(C)Nc1cc(-c2ccc3cc(C#N)cnn23)ncc1C(=O)NCCC1COC1 [Example 52, 6-(3-cyanopyrrolo[1,2-b]pyridazin-7-yl)-4-(isopropylamino)-N-(2-(oxetan-3-yl)ethyl) nicotinamide]
EC50 (TNFα; [2]): 0.086 µM

Molecule: 6-(3-cyanopyrrolo[1,2-b]pyridazin-7-yl)-N-(2-(hydroxymethyl)cyclopropyl)-4-(isopropylamino)nicotinamide [Example 19]
EC50 (TNFα; TNFα content): 0.926 µM

Molecule: CC(C)(O)[C@H](F)CNC(=O)c1cnc(-c2ccc3cc(C#N)cnn23)cc1NC1CC1 [Example 55, (R)-6-(3-cyanopyrrolo[1,2-b]pyridazin-7-yl)-4-(cyclopropylamino)-N-(2-fluoro-3-hydroxy-3-methylbutyl) nicotinamide]
EC50 (TNFα; [2]): 0.028 µM

EC50 (TNFα; TNFα content): > 10 µM
Molecule: (R)-4-((1H-benzo[d][1,2,3] triazol-5-yl)amino)-6-(3- cyanopyrrolo[1,2-b]pyridazin- 7-yl)-N-(2-fluoro-3- hydroxy-3-methylbutyl) nicotinamide [Example 569]
